Assay results as given in patent publication US7605168B2 (Plexxikon, Inc., priority 2004, dated 2009).

Assays:
[1] = target: T1, PDE4B2: full-length human PDE4B2 isozyme (Homo sapiens, UniProt Q07343); test: PDE4 IC50 determination by Scintillation Proximity Assay (SPA), full-length PDE4B2; assay type: biochemical; settings: cell lysate, [3H]cAMP SPA
T1 construct: made in house; host or cells: baculovirus infected insect cells (pFastBacHT)
Procedure, shortened: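 Unpurified enzyme from cell lysates (PDE4B2 2.5 μl, PDE4D5 0.083 μl of 50% glycerol stock/ml) hydrolysing [3H]cAMP in 50 mM Tris pH 7.5, 8.3 mM MgCl, 1.7 mM EGTA, 0.01% BSA, 30 min at 30 °C. Stopped with yttrium silicate SPA beads in 18 mM ZnSO4; bead-bound [3H]AMP counted. IC50 by non-linear regression.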

[2] = target: T2, PDE4D: catalytic domain S316-V692 (Homo sapiens, UniProt Q08499); test: PDE4 IC50 determination by Scintillation Proximity Assay (SPA), PDE4D catalytic domain; assay type: biochemical; settings: [3H]cAMP SPA, 30 min at 30° C.
T2 construct: pET15S PDE4D S316-V692-X; His6 (N, cleaved yes); thrombin cleavage site (N, cleaved yes); made in house; host or cells: E. coli BL21 (DE3) RIL
Protocol: IC50s were determined by Scintillation Proximity Assay (SPA). The principle of the assay is based on the fact that cAMP, the PDE4 substrate, binds weakly to Yittrium Silicate SPA beads, whereas AMP, the product of PDE4 hydrolysis binds strongly. Thus, the extent of PDE4 hydrolysis of a sample of [^3H]cAMP can be measured because only the [^3H]AMP produced by PDE4 hydrolysis will bind to the SPA beads and produce a scintillation signal.
[…] Enzyme was stored in 50% glycerol at −20°. See Example 144.
Compounds tested (see Tables 5 for compounds and results) were 3-fold serially diluted 11 times in DMSO from a starting concentration of 4 mM or 40 μM, depending on compound potency. 1 μl of each dilution was transferred into duplicate wells of a white polystyrene 384-well assay plate (Corning #3710). In addition to the compound dilutions, each assay plate contained control wells with 1 μl of DMSO (to define 0% enzyme inhibition) or 1 μl of 200 μM roflumilast (to define 100% enzyme inhibition). Using a Beckman FX robot, 10 μl of [^3H] cAMP (Amersham TRK559) at […] in assay buffer (50 mM Tris, pH 7.5; 8.3 mM MgCl; 1.7 mM EGTA; 0.01% BSA) was transferred to each assay well. Next, 10 μl of PDE4 enzyme in assay buffer was added and the plates were shaken for 30 s. at 1000 rpm to start the cAMP hydrolysis reaction. The concentrations of enzyme used were: PDE4B, 80 ng/ml; PDE4D, 4 ng/ml; PDE4B2, 2.5 μl of 50% glycerol stock/ml; PDE4D5 0.083 μl of 50% glycerol stock/ml. Assay plates were covered and incubated for 30 min. at 30° C. Reactions were stopped by robotic addition of 10 μl of 5 mg/ml SPA beads (Amersham RPNQ0013) in 18 mM ZnSO4. The assay plates were covered with clear plastic film, centrifuged for 1 min. at 1000 RPM to settle the SPA beads, and counted using a Wallac TriLux scintillation counter. IC50's were calculated from the raw assay data by non-linear regression curve fitting using the Assay Explorer software package from MDL.

[3] = system: TNFα levels in serum of LPS-challenged rats; test: Rat inhibition studies: serum TNFα after iv LPS challenge; assay type: in vivo; settings: 5 mg/kg po, LPS 0.1 mg/kg iv 2 h after dosing, percent decrease in serum TNFα versus vehicle, read-out: % inhibition r TNFα
Protocol: All studies were done with male rats CD (SD) IGS BR (Crl) (Charles River, France), which were grouped in to 5 animal groups.
At the end of the acclimatization period, the non-fasted rats were weighed, individually identified on the tail with a permanent marker and administered by oral (po) or interperitoneal (ip) route with either vehicle, reference or test compound in a volume of 10 mL/kg adapted to the body weight. The animals were gathered in groups of 5 animals in a polystyrene labeled cage with sawdust covered floors. 2-hours after vehicle, reference or test substance administration, rats received an intravenous (iv) injection of 0.1 mg/kg LPS in a volume of 1 mL/kg of body weight. 2 h after LPS challenge (or as indicated in Tables 3B and 4B), blood samples were collected into tubes without anticoagulant by retro-orbital puncture under gas (isoflurane) anesthesia. Samples were allowed to clot at room temperature for 5 to 10 min then put on ice until there were prepared by centrifugation (6000×g for 3 min at 4° C.) and stored at −20° C. until use. TNFα levels were measured in serum samples in duplicate by ELISA technique according to the manufacturer's procedure (Rat TNFα kit Quantikine M (RTA00, R&D System, France)). Data are reported as percent decrease in observed TNFα levels versus TNFα levels observed for vehicle dosed animal groups.

T2 sequence (Q08499 380-756): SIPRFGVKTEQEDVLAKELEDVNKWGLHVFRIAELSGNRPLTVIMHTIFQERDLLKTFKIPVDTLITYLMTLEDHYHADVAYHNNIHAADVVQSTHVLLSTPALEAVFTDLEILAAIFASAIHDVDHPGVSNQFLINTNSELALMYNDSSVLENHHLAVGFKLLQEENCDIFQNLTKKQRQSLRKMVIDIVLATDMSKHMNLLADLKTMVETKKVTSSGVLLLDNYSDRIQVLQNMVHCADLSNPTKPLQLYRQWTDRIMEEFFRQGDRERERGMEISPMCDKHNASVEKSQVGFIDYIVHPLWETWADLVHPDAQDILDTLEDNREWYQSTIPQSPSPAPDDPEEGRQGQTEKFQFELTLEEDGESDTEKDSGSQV
T1 sequence (Q07343 with tags, fused parts or gaps isoform Q07343-2): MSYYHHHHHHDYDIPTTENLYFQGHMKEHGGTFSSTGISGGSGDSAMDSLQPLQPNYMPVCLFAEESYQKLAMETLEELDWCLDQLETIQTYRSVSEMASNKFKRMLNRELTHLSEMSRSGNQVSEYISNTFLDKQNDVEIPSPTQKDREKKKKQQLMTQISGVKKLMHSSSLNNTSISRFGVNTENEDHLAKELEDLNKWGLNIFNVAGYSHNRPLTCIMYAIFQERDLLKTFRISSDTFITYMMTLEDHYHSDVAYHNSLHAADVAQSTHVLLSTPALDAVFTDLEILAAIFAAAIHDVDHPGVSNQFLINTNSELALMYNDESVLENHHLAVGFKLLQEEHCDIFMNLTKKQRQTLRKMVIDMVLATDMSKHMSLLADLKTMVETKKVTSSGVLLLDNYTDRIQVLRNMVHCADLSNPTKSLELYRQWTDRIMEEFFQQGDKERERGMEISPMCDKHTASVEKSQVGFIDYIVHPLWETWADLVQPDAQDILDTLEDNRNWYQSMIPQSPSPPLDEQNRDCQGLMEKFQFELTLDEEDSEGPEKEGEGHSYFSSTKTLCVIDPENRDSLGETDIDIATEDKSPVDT

SMILES | IC50 [1] | IC50 [2] | inhibition in vivo at 5 mg/kg [3]
CCOc1ccc2ccccc2c1C(=O)n1cc(-c2ccc(OC)c(OC)c2)c2cccnc21 [Compound 52, [3-(3,4-Dimethoxy-phenyl)-pyrrolo[2,3-b]pyridin-1-yl]-(2-ethoxy-naphthalen-1-yl)-methanone] | < 10 µM | ≤ 10 µM | ≥ 20%
CCOc1ccccc1C(=O)n1cc(-c2ccc(OC)c(OC)c2)c2cccnc21 [Compound 61, [3-(3,4-Dimethoxy-phenyl)-pyrrolo[2,3-b]pyridin-1-yl]-(2-ethoxy-phenyl)-methanone-amide] | < 10 µM | ≤ 10 µM | ≥ 20%
